Values joined by “and” are separate entries in the source; they are usually repeats but may differ in a detail not shown here. Identical values can stand only once. Like-named read-outs stand apart in the source and are kept apart here.

Consider one molecule from US11999806B2, “Broad-spectrum polypeptide against enterovirus and application thereof” (WUHAN INSTITUTE OF VIROLOGY, CHINESE ACADEMY OF SCIENCES, priority 2018, dated 2024).

For assay [1], the system named is EV71. As to the kind of experiment: Antiviral activity against EV71 in mice, virus copies in hind limb muscle by qRT-PCR. The format is in vivo, ICR suckling mice. From the text:
(§1) • (1) 8 2-day-old ICR mice were randomly divided into two groups, 4 in each group.
A general note: Quantitative PCR measures a nucleic acid by following its amplification.

Assay [2] has as its system EV71. The assay is classed as cell-based, enterovirus 71. The note with it: EV71 0.1 MOI, RD cells, 24 h; for Virus inhibition rate (%): CCK-8. On the procedure:
• (1) 293T cells were plated in a 24-well cell plate. • (2) After the cells reached 70%-80% confluence, the MEM medium containing 10% serum was replaced with a MEM medium containing 2% serum (0.5 ml/well), and 5 μl of 10^6 PFU/mL EV71 virus per well was added. • (3) After 1 hour, polypeptides P2, 3A-TAT-EP, 3A-EP-DRI and 3A-EP-PEG-PA were added at a final concentration of 0.01 μM, 0.1 μM, 1 μM, and 10 μM, respectively. • (4) Samples were collected 24 hours after virus infection, and RNA was extracted with a total RNA extraction kit. • (5) The supernatant in each well was discarded, then 350 μl of TRK Lysis Buffer was added to the well and the plate was shaken on the shaker for 5 minutes. • (6) 350 μl of 70% ethanol (DEPC-treated) was added to the well and the plate was shaken on the shaker for 5 minutes. • (7) The mixture in the well was transferred to a RNA extraction column and centrifuged at 12000 g for 1 min. • (8) The solution collected in the recovery tube was added back to the column and centrifuged at 12,000 g for 1 min. • (9) RNA washing buffer 1 was added to the column and centrifuged at 12,000 g for 30 s. • (10) RNA washing buffer 2 was added to the column and centrifuged at 12,000 g for 1 min. • (11) Step (10) was repeated once. • (12) The empty column was centrifuged at 12,000 g for 2 min to completely remove residual RNA washing buffer. • (13) 50 μl DEPC-treated water was added to the column and centrifuge at 12000 g for 2 min. • (14) 2 μl RNA sample was used according to one step qRT-PCR kit for fluorescence quantification experiment. 3. […] Each concentration was tested in triplicate. • (3) The diluted virus solution was added to the plate of step (1), 100 μL per well with the final virus concentration was 0.1 MOI. Wells without polypeptide and virus (well without treatment), wells with virus only were used as controls. • (4) The mixture of step (2) was added to the 96-well plate plated with cells in step (1) and incubated in 5% CO2 at 37° C. for 24 h. Then CCK8 kit was used to determine the inhibitory effect of the polypeptide on virus. • (5) The inhibition rate of different concentrations of polypeptides on viral infection was calculated using the following formula: OD means the value of OD450-OD630, inhibition rate=(OD well with treatment−OD well with virus only)×100%/(OD well without treatment−OD well with virus only)
• (1) RD cells in good growth state were plated in a 96-well plate. • (2) After the cells reached 70%-80% confluence, the MEM medium containing 10% serum was replaced with a MEM medium containing 2% serum. Group without polypeptide and virus, and group with virus but without polypeptide were included as controls. The final virus concentration was 0.1 MOI. • (3) 1 h later, polypeptide CR at a final concentration of 5 μM, 2.5 μM, 1.25 μM, 0.625 μM, 0.3125 μM, and 0.15625 μM was added, respectively. Group without polypeptide and virus, and group with virus but without polypeptide were set as controls. • (4) 24 hours after virus infection, when the change in the control group with only virus was obvious, 10 μl of viable cell detection agent CCK-8 was added to each well and mixed well. • (5) The plate was incubated at 37° C. for 2 h. • (6) The absorbance value at OD450 was measured with a microplate reader. Inhibition rate of polypeptide=(OD well with treatment−OD well with virus only)×100%/(OD well without treatment−OD well with virus only), OD refers to the value of OD450-OD630.
• (1) RD cells in good growth state were plated in a 96-well plate. • (2) After the cells reached 70%-80% confluence, the MEM medium containing 10% serum was replaced with a MEM medium containing 2% serum. Group without polypeptide and virus, and group with virus but without polypeptide were included as controls. The final virus concentration was 0.1 MOI. • (3) 1 h later, polypeptide CR at a final concentration of 2.5 μM, 1.25 μM, 0.625 μM, 0.3125 μM, and 0.15625 μM was added, respectively. […]

The next assay deals with CVA16. As to the kind of experiment: Antiviral activity against CVA16 in mice, virus copies in muscle by qRT-PCR. The following applies: 10 mg/kg i.p. every 12 h for 5 days vs PBS. The format is in vivo, ICR suckling mice.
Text: as §1
3. The Procedure for Detecting the Antiviral Activity of P1 Against CVA16 in Mice is Similar as the EV71 Experiment.
3. The Procedure for Detecting the Antiviral Activity of CR Against CVA16 in Mice is Similar to the EV71 Experiment.

As usually defined, the IC50 is the concentration that gives 50% inhibition. Consider `N=C(N)NCCC[C@H](NC(=O)[C@H](CS)NC(=O)CNC(=O)[C@H](CO)NC(=O)CNC(=O)[C@H](CCCNC(=N)N)NC(=O)[C@H](CCCNC(=N)N)NC(=O)[C@H](CCCNC(=N)N)NC(=O)[C@H](CCC(N)=O)NC(=O)[C@H](CCCNC(=N)N)NC(=O)[C@H](CCCNC(=N)N)NC(=O)[C@H](CCCCN)NC(=O)[C@H](CCCCN)NC(=O)[C@H](CCCNC(=N)N)NC(=O)CNC(=O)[C@@H](N)Cc1ccc(O)cc1)C(=O)O` [CR], for which the “EV71 viral load in mice, in words” value in the assay with EV71 [1] (10 mg/kg i.p. every 12 h for 5 days vs PBS) is “can significantly reduce the EV71 viral load in mice”. The “Number of EV71 virus copy in muscle tissue (Copies/g)” value in the assay on EV71 [1] (2-day-old ICR mice, EV71 i.p., 10 mg/kg polypeptide i.p. every 12 h for 5 days, individual animals, 10 mg/kg) was 1.88e+007 Copies/g and 1.122e+007 Copies/g and 1.738e+007 Copies/g and 9852432.0000 Copies/g. Besides, the “Virus inhibition rate (%)” value was −4.346% and −7.143% and −8.595% in the assay with EV71 [2] (0.15625 μM); 16.42% and 7.119% and 16.77% in the assay with EV71 [2] (0.625 μM); 50.8% and 47.5% and 45.63% in the assay on EV71 [2] (1.25 μM); 78.26% and 70.5% and 64.43% in the assay with EV71 [2] (2.5 μM); 74.47% and 71.5% and 69.26% in the assay with EV71 [2] (5 μM). Moreover, the IC50 in the assay on EV71 [2] (read-out: IC50 against EV71 by CCK8 method) is 1700 nM. Besides, the “CVA16 viral load in mice, in words” value in the assay on CVA16 is listed as “can significantly reduce the viral load of CVA16 in mice”.
